Results from patent publication US11472798B2 (Mission Therapeutics Limited, priority 2014, dated 2022).

molecular target: T1, UCHL1 (Homo sapiens, UniProt P09936); assay: UCHL1 biochemical IC50 assay (fluorescence polarisation); conditions: 30 min enzyme/compound pre-incubation at room temp, read after 2 hr incubation, read-out: Activity range (UCHL1 biochemical IC50 assay)
T1 construct: made in house; host or cells: HEK293T
T1 sequence (P09936 1-223): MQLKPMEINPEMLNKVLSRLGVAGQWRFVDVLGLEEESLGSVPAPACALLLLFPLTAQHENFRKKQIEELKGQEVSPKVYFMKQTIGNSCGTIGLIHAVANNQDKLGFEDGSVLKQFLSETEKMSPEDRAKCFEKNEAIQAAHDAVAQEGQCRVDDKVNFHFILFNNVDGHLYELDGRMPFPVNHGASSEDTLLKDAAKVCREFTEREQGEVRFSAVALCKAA
How it was run: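 Fluorescence polarisation (ex 540/em 590 nm) of 50 nM TAMRA-labelled ubiquitin–peptide isopeptide substrate was read at time zero and after 2 h at room temperature. Compounds (100–0.03 μM final, in duplicate) were given 30 min preincubation with N-FLAG UCHL1 from HEK293T cells in pH 7.5 Tris buffer.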

Row | Structure (SMILES) | IC50 [nM]
1 | C[C@@H]1CN(C#N)C[C@H]1C(=O)Nc1cn(-c2ccccc2)cn1 [Example 85, (f)-1-cyano-4-methyl-N-(1-phenyl-1H-imidazol-4-yl)pyrrolidine-3-carboxamide] | 1000 to 10000
2 | CC[C@@H]1CN(C#N)C[C@H]1C(=O)Nc1cn(-c2ccccc2)cn1 [Example 87, (6)-1-cyano-4-ethyl-N-(1-phenyl-1H-imidazol-4-yl)pyrrolidine-3-carboxamide] | 1000 to 10000
3 | CN(c1ccccc1)c1cnc(NC(=O)C2CCN(C#N)C2)s1 (stereo not drawn) [Example 94, 1-cyano-N-(5-(methyl(phenyl)amino)thiazol-2-yl)pyrrolidine-3-carboxamide] | < 1000
4 | N#CN1CC[C@H](C(=O)Nc2cccc(N3CCCC3)n2)C1 [Example 106, (S)-1-cyano-N-(6-(pyrrolidin-1-yl)pyridin-2-yl)pyrrolidine-3-carboxamide] | 10000 to 30000
5 | N#CN1CC[C@H](C(=O)Nc2cc(N3CCCC3)ccn2)C1 [Example 107, (S)-1-cyano-N-(4-(pyrrolidin-1-yl)pyridin-2-yl)pyrrolidine-3-carboxamide] | 1000 to 10000
6 | N#CN1CC[C@H](C(=O)Nc2cnc(N3CCCC3)cn2)C1 [Example 108, (S)-1-cyano-N-(5-(pyrrolidin-1-yl)pyrazin-2-yl)pyrrolidine-3-carboxamide] | 1000 to 10000
7 | N#CN1CCC(C(=O)Nc2ncc(-c3ccccc3N)s2)C1 (stereo not drawn) [Example 109, N-(5-(2-aminophenyl)thiazol-2-yl)-1-cyanopyrrolidine-3-carboxamide] | 1000 to 10000
8 | N#CN1CCC(C(=O)Nc2ncc(-c3cccc(N)c3)s2)C1 (stereo not drawn) [Example 110, N-(5-(3-aminophenyl)thiazol-2-yl)-1-cyanopyrrolidine-3-carboxamide] | 1000 to 10000
9 | N#CN1CCC(C(=O)Nc2ncc(-c3ccc(N)cc3)s2)C1 (stereo not drawn) [Example 111, N-(5-(4-aminophenyl)thiazol-2-yl)-1-cyanopyrrolidine-3-carboxamide] | < 1000
10 | N#CN1CCC(C(=O)Nc2ncc(-c3cccnc3)s2)C1 (stereo not drawn) [Example 112, 1-cyano-N-(5-(pyridin-3-yl)thiazol-2-yl)pyrrolidine-3-carboxamide] | < 1000
11 | CC(=O)Nc1ccc(-c2cnc(NC(=O)C3CCN(C#N)C3)s2)cc1 (stereo not drawn) [Example 114, N-(5-(4-acetamidophenyl)thiazol-2-yl)-1-cyanopyrrolidine-3-carboxamide] | < 1000
12 | CC(=O)Nc1ccccc1-c1cnc(NC(=O)C2CCN(C#N)C2)s1 (stereo not drawn) [Example 115, N-(5-(2-acetamiclophenyl)thiazol-2-yl)-1-cyanopyrrolidine-3-carboxamide] | 1000 to 10000
13 | CS(=O)(=O)Nc1cccc(-c2cnc(NC(=O)C3CCN(C#N)C3)s2)c1 (stereo not drawn) [Example 116, 1-cyano-N-(5-(3-(methyl-sulfonamido)phenyl)thiazol-2-yl)pyrrolidine-3-carboxamide] | < 1000
14 | N#Cc1cccc(-c2cnc(NC(=O)[C@H]3CCN(C#N)C3)s2)c1 [Example 117, (S)-1-cyano-N-(5-(3-cyanophenyl)thiazol-2-yl)pyrrolidine-3-carboxamide] | < 1000
15 | N#Cc1ccc(-c2cnc(NC(=O)[C@H]3CCN(C#N)C3)s2)cc1 [Example 118, (S)-1-cyano-N-(5-(4-cyanophenyl)thiazol-2-yl)pyrrolidine-3-carboxamide] | < 1000
16 | Cc1noc(C)c1-c1ccc2sc(NC(=O)C3CCN(C#N)C3)nc2c1 (stereo not drawn) [Example 119, 1-cyano-N-(5-(3,5-dimethylisoxazol-4-yl)benzo[d]thiazol-2-yl)pyrrolidine-3-carboxamide] | 1000 to 10000
17 | Cc1noc(C)c1-c1ccc2nc(NC(=O)[C@H]3CCN(C#N)C3)sc2c1 [Example 120, (S)-1-cyano-N-(6-(3,5-dimethylisoxazol-4-yl)benzo[d]thiazol-2-yl)pyrrolidine-3-carboxamide] | < 1000
18 | COc1ccc(-c2ccc3nc(NC(=O)[C@H]4CCN(C#N)C4)sc3c2)cc1 [Example 121, (S)-1-cyano-N-(6-(4-methoxyphenyl)benzo[d]thiazol-2-yl)pyrrolidine-3-carboxamide] | 1000 to 10000
19 | N#CN1CC[C@H](C(=O)Nc2nc3ccc(-c4ccccc4)cc3s2)C1 [Example 122, (S)-1-cyano-N-(6-phenylbenzo[d]thiazol-2-yl)pyrrolidine-3-carboxamide] | 1000 to 10000

The remaining lines, values ahead:

Row | IC50 [nM] | Structure (SMILES)
20 | < 1000 | N#CN1CC[C@H](C(=O)Nc2ncc(N3CCOCC3)s2)C1 [Example 91, (S)-1-cyano-N-(5-morpholinothiazol-2-yl)pyrrolidine-3-carboxamide]
21 | < 1000 | CN1CCN(c2cnc(NC(=O)C3CCN(C#N)C3)s2)CC1 (stereo not drawn) [Example 92, 1-cyano-N-(5-(4-methylpiperazin-1-yl)thiazol-2-yl)pyrrolidine-3-carboxamide]
22 | < 1000 | CC(=O)NCC1CCCCN1c1cnc(NC(=O)C2CCN(C#N)C2)s1 (stereo not drawn) [Example 93, N-(5-(2-(acetamidomethyl)piperidin-1-yl)thiazol-2-yl)-1-cyanopyrrolidine-3-carboxamide]
23 | < 1000 | N#CN1CCC(C(=O)Nc2ncc(N3CCc4ccccc43)s2)C1 (stereo not drawn) [Example 95, 1-cyano-N-(5-(indolin-1-yl)thiazol-2-yl)pyrrolidine-3-carboxamide]
24 | < 1000 | N#CN1CC[C@H](C(=O)Nc2ncc(N3CCCCC3)s2)C1 [Example 96, (S)-1-cyano-N-(5-(piperidin-1-yl)thiazol-2-yl)pyrrolidine-3-carboxamide]
25 | < 1000 | N#CN1CC[C@H](C(=O)Nc2ncc(N3Cc4ccccc4C3)s2)C1 [Example 97, (S)-1-cyano-N-(5-(isoindolin-2-yl)thiazol-2-yl)pyrrolidine-3-carboxamide]
26 | 1000 to 10000 | N#CN1CC[C@H](C(=O)Nc2ncc(N3CCc4ccccc4C3)s2)C1 [Example 98, (S)-1-cyano-N-(5-(3,4-dihydroisoquinolin-2(1H)-yl)thiazol-2-yl)pyrrolidine-3-carboxamide]
27 | < 1000 | COC[C@H]1CCCN1c1cnc(NC(=O)[C@H]2CCN(C#N)C2)s1 [Example 99, (S)-1-cyano-N-(5-((R)-2-(methoxymethyl)pyrrolidin-1-yl)thiazol-2-yl)pyrrolidine-3-carboxamide]
28 | < 1000 | COC[C@@H]1CCCN1c1cnc(NC(=O)[C@H]2CCN(C#N)C2)s1 [Example 100, (S)-1-cyano-N-(5-((S)-2-(methoxymethyl)pyrrolidin-1-yl)thiazol-2-yl)pyrrolidine-3-carboxamide]
29 | < 1000 | N#CN1CC[C@H](C(=O)Nc2ncc(N3CCNC(=O)CC3)s2)C1 [Example 101, (S)-1-cyano-N-(5-(5-oxo-1,4-diazepan-1-yl)thiazol-2-yl)pyrrolidine-3-carboxamide]
30 | 1000 to 10000 | N#CN1CC[C@@H](C(=O)Nc2ncc(N3CCOCC3)s2)C1 [Example 102, (R)-1-cyano-N-(5-morpholinothiazol-2-yl)pyrrolidine-3-carboxamide]
31 | 1000 to 10000 | N#CN1CC[C@@H](C(=O)Nc2ncc(N3CCCCC3)s2)C1 [Example 103, (R)-1-cyano-N-(5-(piperidin-1-yl)thiazol-2-yl)pyrrolidine-3-carboxamide]
32 | 1000 to 10000 | CC1CC(C(=O)Nc2ncc(N3CCCCC3)s2)CN1C#N (stereo not drawn) [Example 105, 1-cyano-5-methyl-N-(5-(piperidin-1-yl)thiazol-2-yl)pyrrolidine-3-carboxamide]
33 | < 1000 | N#CN1CCC(C(=O)Nc2ncc(/C=C/C3CC3)s2)C1 (stereo not drawn) [Example 113, (E)-1-cyano-N-(5-(2-cyclopropylvinyl)thiazol-2-yl)pyrrolidine-3-carboxamide]
